Experimental data published in ChEMBL document CHEMBL5137036, “Design and synthesis of highly TRAIL expression HDAC inhibitors based on ONC201 to promote apoptosis of colorectal cancer” (Eur J Med Chem, 2022).
Activity calls are given as the source filed them. The calls are words filed in the database; no cut-off is given here.

Assays:
Histone deacetylase 1 [1] = target: T1, Histone deacetylase 1 (Homo sapiens, UniProt Q13547); assay: Inhibition of human HDAC1 assessed as residual activity at 1 uM using RHKKAc fluorogenic peptide as substrate preincubated for 10 mins followed by substrate addition by fluorescence based analysis relative to control
Histone deacetylase 1 [2] = target: T1, Histone deacetylase 1; assay: Inhibition of human HDAC1 using RHKKAc fluorogenic peptide as substrate preincubated for 10 mins followed by substrate addition by fluorescence based analysis
MV4-11 = assay: Antiproliferative activity against human MV4-11 cells assessed as inhibition of cell growth incubated for 72 hrs by luminescence based analysis; assay type: functional; settings: MV4-11, 72 h
HepG2 = assay: Antiproliferative activity against human HepG2 cells assessed as inhibition of cell growth incubated for 72 hrs by luminescence based analysis; assay type: functional; settings: HepG2, 72 h
HCT-116 [3] = assay: Antiproliferative activity against human HCT-116 cells assessed as inhibition of cell growth incubated for 72 hrs by luminescence based analysis; assay type: functional; settings: HCT-116, 72 h
Histone deacetylase 1 [4] = target: T1, Histone deacetylase 1; assay: Inhibition of HDAC1 in human HCT-116 cells assessed as increase in DR5 protein expression at 0.5 uM incubated for 12 hrs by Western blot analysis; assay type: cell-based
HCT-116 [5] = assay: Induction of apoptosis in human HCT-116 cells assessed as viable cells at 0.5 uM incubated for 24 hrs by AnnexinV-FITC/PI staining based flow cytometry (reference value: 93.64%); assay type: functional; settings: read-out: Activity
HCT-116 [6] = assay: Induction of apoptosis in human HCT-116 cells assessed as early apoptotic cells at 0.5 uM incubated for 24 hrs by AnnexinV-FITC/PI staining based flow cytometry (reference value: 0.93 %); assay type: functional
HCT-116 [7] = assay: Induction of apoptosis in human HCT-116 cells assessed as late apoptotic cells at 0.5 uM incubated for 24 hrs by AnnexinV-FITC/PI staining based flow cytometry (reference value: 0.82 %); assay type: functional
HCT-116 [8] = assay: Induction of apoptosis in human HCT-116 cells assessed as dead cells at 0.5 uM incubated for 24 hrs by AnnexinV-FITC/PI staining based flow cytometry (reference value: 4.62 %); assay type: functional
HCT-116 [9] = assay: Antiproliferative activity against human HCT-116 cells assessed as residual activity at 2 uM incubated for 72 hrs by luminescence based analysis relative to control; assay type: functional

T1 sequence (Q13547 whole entry): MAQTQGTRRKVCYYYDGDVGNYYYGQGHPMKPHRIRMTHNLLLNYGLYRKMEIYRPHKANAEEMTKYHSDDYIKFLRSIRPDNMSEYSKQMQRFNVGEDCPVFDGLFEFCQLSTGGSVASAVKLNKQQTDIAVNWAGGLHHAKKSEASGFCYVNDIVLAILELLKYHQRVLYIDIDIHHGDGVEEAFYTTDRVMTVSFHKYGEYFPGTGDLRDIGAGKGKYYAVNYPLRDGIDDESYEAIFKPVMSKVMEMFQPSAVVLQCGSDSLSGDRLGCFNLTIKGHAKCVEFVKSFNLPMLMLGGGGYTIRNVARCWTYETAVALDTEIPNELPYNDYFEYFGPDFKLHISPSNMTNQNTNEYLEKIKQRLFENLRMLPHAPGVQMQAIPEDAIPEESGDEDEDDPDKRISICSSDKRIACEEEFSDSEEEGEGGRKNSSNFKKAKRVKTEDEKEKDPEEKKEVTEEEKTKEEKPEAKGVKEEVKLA

Activity (Histone deacetylase 1 [1]) [%]	IC50 (Histone deacetylase 1 [2]) [nM]	IC50 (MV4-11) [nM]	IC50 (HepG2) [nM]	Compound	further results
46.4				Nc1ccccc1NC(=O)c1ccc(CN2CCC3=C(C2)C(=O)N(Cc2cccnc2)C2=NCCN23)cc1	
44.4				COc1ccc(CN2CCC3=C(C2)C(=O)N(Cc2ccc(C(=O)Nc4ccccc4N)cc2)C2=NCCN23)cc1	
68				Cc1ccccc1CN1CCC2=C(C1)C(=O)N(Cc1ccc(C(=O)Nc3ccc(F)cc3N)cc1)C1=NCCN12	
78.3				Nc1cc(F)ccc1NC(=O)c1ccc(CN2C(=O)C3=C(CCN(Cc4ccccc4)C3)N3CCN=C23)cc1	
58.3				Nc1ccccc1NC(=O)c1ccc(CN2C(=O)C3=C(CCN(Cc4nc5ccccc5[nH]4)C3)N3CCN=C23)cc1	
	66.9	1270	4490	NC1=C(CCCc2ccccc2)C(=O)N(Cc2ccc(C(=O)Nc3ccccc3N)cc2)C2=NCCN21	IC50 (HCT-116 [3]): 673 nM; inhibition (Histone deacetylase 1 [4]): Active
	174	957	4720	N#Cc1ccc(CN2C(=O)C3=C(CCN(Cc4ccc(C(=O)Nc5ccccc5N)cc4)C3)N3CCN=C23)cc1	IC50 (HCT-116 [3]): 967 nM
	413			NC1=C(CCCc2ccccc2)C(=O)N(Cc2ccc(C(=O)Nc3ccc(F)cc3N)cc2)C2=NCCN21	
	253	801	3560	Cc1ccccc1CN1C(=O)C2=C(CCN(Cc3ccc(C(=O)Nc4ccccc4N)cc3)C2)N2CCN=C12	IC50 (HCT-116 [3]): 1080 nM
	273	828	1270	NC1=C(CCNC(=O)c2ccccc2)C(=O)N(Cc2ccc(C(=O)Nc3ccccc3N)cc2)C2=NCCN21	Activity (HCT-116 [9]): 88.98%
	198	753	4000	Nc1ccccc1NC(=O)c1ccc(CN2C(=O)C3=C(CCN(Cc4ccccc4)C3)N3CCN=C23)cc1	IC50 (HCT-116 [3]): 1450 nM; inhibition (Histone deacetylase 1 [4]): Active
	600			Nc1ccccc1NC(=O)c1ccc(CN2C(=O)C(CCCc3ccccc3)=C(O)N3CCN=C23)cc1	
	377	2430	4520	Cc1ccc(/C=C/C(=O)N2CCC3=C(C2)C(=O)N(Cc2ccc(C(=O)Nc4ccccc4N)cc2)C2=NCCN23)o1	Activity (HCT-116 [9]): 79.55%
58.1				Nc1ccccc1NC(=O)c1ccc(CN2C(=O)C3=C(CCN(Cc4ccc5ccccc5c4)C3)N3CCN=C23)cc1	
63.8				CNC1=C(CCCc2ccccc2)C(=O)N(Cc2ccc(C(=O)Nc3ccccc3N)cc2)C2=NCCN21	
52.2				Nc1ccccc1NC(=O)c1ccc(CN2C(=O)C3=C(CCN(Cc4ccc(Cl)c(C(F)(F)F)c4)C3)N3CCN=C23)cc1	
	278	1450	6170	Nc1ccccc1NC(=O)c1ccc(CN2C(=O)C3=C(CCN(C(=O)/C=C/c4ccc(Cl)cc4F)C3)N3CCN=C23)cc1	IC50 (HCT-116 [3]): 662 nM
46.3				CC(c1ccccc1)N1C(=O)C2=C(CCN(Cc3ccc(C(=O)Nc4ccccc4N)cc3)C2)N2CCN=C21 (stereo not drawn)	
49.1				Nc1ccccc1NC(=O)c1ccc(CN2CCC3=C(C2)C(=O)N(Cc2cccc(F)c2)C2=NCCN23)cc1	

Compound	Activity (Histone deacetylase 1 [1]) [%]	IC50 (Histone deacetylase 1 [2]) [nM]	IC50 (MV4-11) [nM]	IC50 (HepG2) [nM]	further results
Nc1cc(F)ccc1NC(=O)c1ccc(CNC(=O)/C=C/c2cccnc2)cc1 [TUCIDINOSTAT]			783	2000	viability at 0.5 µM (HCT-116 [5]): 88.8%; Activity (HCT-116 [6]): 1.22%; Activity (HCT-116 [7]): 1.66%; Activity (HCT-116 [8]): 8.27%
